Patent US8124381B2, “Process and materials for production of glucosamine and N-acetylglucosamine” (Arkion Life Sciences, priority 2002, dated 2012)

Assays:
[1] = biological target: E. coli GlmS mutant GlmS*110 (Escherichia coli, UniProt P17169); experiment: GlmS inhibition and Michaelis-Menten kinetics; assay type: biochemical; settings: read-out: Km (fructose-6-P)
Protocol: (§1) Different glucosamine synthetase enzymes, including native B. subtillus GlmS, native E. coli GlmS and mutant E. coli GlmS, were studied in vitro. Cells of various E. coli strains were grown in the M9A medium, harvested, and frozen. Cells extracts were prepared and the glucosamine synthetases were characterized and compared.
(§2) Enzyme sensitivities to the reaction product glucosamine-6-P were examined. […] This figure highlights the dramatic difference between the wild type GlmS and these mutant GlmS strains.
(§3) The Mutants 2123-54 and the B. subtilis enzyme have higher Ki values (Table 6). Measured Ki constants for several of these mutants are 4 to 8 times the value for the native enzyme in strain 2123-12. From shake flask studies it is apparent that decreased sensitivity to glucosamine-6-P allows higher glucosamine levels to accumulate.
(§4) These values are slightly higher than those obtained with the native enzyme.

[2] = biological target: E. coli GlmS mutant GlmS*69 (Escherichia coli, UniProt P17169); experiment: GlmS inhibition and Michaelis-Menten kinetics; assay type: biochemical; settings: read-out: Km (fructose-6-P)
Protocol: as §1, §2, §3, §4

[3] = biological target: E. coli glucosamine synthase GlmS*54, SEQ ID NO:6 (Ala39Thr, Arg250Cys, Gly472Ser) (Escherichia coli, UniProt P17169, A39T/G472S/R250C); experiment: Effects of phosphorylated sugars on glucosamine synthase, crude extract of lactose-induced 7107-18 cells; assay type: biochemical; settings: 10 mM or relatively high concentration
Protocol: Glucosamine synthetase activity was examined in the presence of various phosphorylated sugars. Crude enzyme extracts was prepared from cells of 7017-18 grown in shake flasks for 24 hours with lactose induction.

[4] = Glucosamine stability in cell-free M9A medium; assay type: physicochemical; settings: for loss of glucosamine: 60 g l-1, cell-free M9A-glucose, 30 C, 52 hours; for glucosamine degradation: cell-free M9A + 40 g l-1 glucose
Protocol: Glucosamine stability was tested in cell-free M9A medium (14 g l^−1 K2HPO4, 16 g l^−1 KH2PO4, 1 g l^−1 Na3citrate.2H2O, 5 g l^−1 (NH4)2SO4, 1 mM MgSO4, 1 mM CaCl2, pH 7.0) supplemented with 40 g l^−1 glucose. Glucosamine was prepared as a 30% glucosamine-HCl concentrated solution and was added to final concentrations of 0, 4, 13, 26 and 42 g l^−1 (50 ml total in 250-ml flask). The pH of the medium was adjusted to pH 6.9. Flasks were placed on a shaker and agitated at about 225 rpm. Glucosamine levels and pH were monitored at 30° C. for about 24 hours. […] The degradation was only about 25% when the starting glucosamine concentration was 4 g l^−1. Glucosamine degradation was accompanied by a decline of pH in the medium. In the 42 g l^−1 glucosamine sample the pH in the medium was lowered by 0.7 units (from 6.9 to 6.2) after a 24-hr period, as compared to a pH change of only about 0.15 units in medium without glucosamine.
The breakdown of glucosamine (60 g l^−1) at four starting pH levels was monitored at 30° C. in cell-free M9A-glucose (40 g l^−1) for 52 hours. At each sampling time, the solutions were readjusted to their original pH. Each condition was run in triplicate. […] The loss of glucosamine was 68% at pH 7.0 as compared to 18% at pH 5.5.
To test the involvement of the aldehyde group, degradation was monitored in M9A medium containing 30 g l^−1 glucosamine with and without 40 g l^−1 glucose. If the aldehyde group is involved, the presence of glucose would affect the rate of glucosamine degradation/polymerization.

E. coli 7107-18 = tested on: E. coli 7107-18
Protocol: Batches of M9A medium with 40 g l^−1 glucose and 20 g 1-1 GlcN were adjusted to five different pHs. One set of flasks was immediately inoculated with 7107-18 cells. Replicate flasks of the same media were incubated without cells for 10 hours, before inoculation. Seven times over 48 hours, flasks were sampled to measure pH, OD600, and GlcN concentration. At each sample point, the pH of the culture was readjusted back to the initial settings.
Glucosamine is vital for E. coli growth since it is a precursor for the synthesis of important cell wall components. E. coli is also capable of using Glucosamine and N-acetylglucosamine as the sole carbon source. The catabolism of the amino sugars requires a functional glucosamine deaminase encoded by the nagB gene, which was deleted in strain 7107-18. […] Experiments were carried out to investigate if glucosamine affects E. coli 7107-18 cell growth and survival in medium containing 40 g l^−1 glucose.

[5] = Stability of glucosamine in stored culture supernatant samples; assay type: physicochemical
Protocol: Shake flask culture samples were assayed by both the HPLC method and the colorimetric methods. The culture supernatants were obtained by centrifugation and filtration to remove particles, and stored at -20° C. until analysis. HPLC was calibrated using a single point 2500 ppm standard solution prepared in […] medium. After thawing, samples were immediately analyzed by HPLC. After remaining in the autosampler overnight, the samples were analyzed again. Agreement was very good between the two methods.

[6] = Glucosamine stability under acid/heat hydrolysis conditions; assay type: physicochemical; settings: for glucosamine stability with heating: 10 g/l in M9A, 100 C
Protocol: In the first experiment N-acetylglucosamine (10 g/l in […] medium without glucose) was hydrolyzed at 100° C. with various levels of hydrochloric acid. In a parallel experiment, glucosamine was subjected to the same treatments to determine its stability under hydrolysis conditions. Conversion of N-acetylglucosamine to glucosamine was determined by monitoring the amount of glucosamine generated by the hydrolysis reaction. Glucosamine was determined by an HPLC method based on that described by Way et al. (Journal of Liquid Chromatography and Related Technologies, 23:2861, 2000). Some specific details of the HPLC method are given below: column: […] Both the amount of remaining N-acetylglucosamine and the amount of formed glucosamine were monitored. N-acetylglucosamine was measured by HPLC using a standard carbohydrate system. Some specific details are given below: column: […] Glucosamine was measured using the ion pair HPLC column as described above. […] At 100° C. conversion was complete by 2.5 hours. […] At lower temperatures, some hydrolysis was observed, but this was much slower. […] Acid hydrolysis of N-acetylglucosamine at 90° C. was performed. […] A series of 12-ml glass screw capped tubes with Teflon lined caps were employed. Each tube represented a separate time point (0, 15, 30, 45, 60, 90 minutes) and contained 2 ml of the N-acetylglucosamine/hydrochloric acid solution. Tubes were heated in a heating block equilibrated at 90° C. Tubes were removed at appropriate times and quick cooled in ice water. Appropriate dilutions were made in and samples analyzed by HPLC for glucosamine and N-acetylglucosamine. […] Kinetics of N-acetylglucosamine disappearance were essentially the same for all four solutions. Hydrolysis is very rapid at 90° C. […] No N-acetylglucosamine was detected at 60 or 90 minutes. After 1 hour at 90° C., N-acetylglucosamine was no longer detected even with 20% N-acetylglucosamine.

[7] = Degradation in hydrochloric acid at 90-100 C based on ammonia formation; assay type: physicochemical; settings: 5% and 10% glucosamine hydrochloride, 12% and 20% hydrochloric acid, 90 C, 1-24 hours
Protocol: Glucosamine degradation was examined at 90° C. and 100° C. using 5% and 10% glucosamine hydrochloride (w/w) with 12% and 20% hydrochloric acid by weight. Samples were incubated from 1-24 hours and assayed enzymatically for ammonia using glutamate dehydrogenase. […] Glucosamine degradation is based on ammonia formation.
N-acetylglucosamine was hydrolyzed to glucosamine at 90° C. using the hybridization oven. The reaction was carried out inside a screw capped glass tube. The 30% hydrochloric acid (30 g) was preincubated at 90° C. for 1 hour. After this 10 g solid N-acetylglucosamine was added, quickly dissolved, and a To sample taken. Samples were taken at 30-minute intervals over the next three hours. […] Samples were analyzed for ammonia enzymatically.

E. coli strain 7107-18 = experiment: Effects of glucosamine and N-acetylglucosamine on growth and survival of E. coli 7107-18; assay type: cell-based, Escherichia coli
Protocol: As shown in Example 11, glucosamine is unstable at the regular pH range used for E. coli growth. […] The toxicity was attributed to at least partially to GlcN degradation products in media with a starting pH of 7.0. […] However, low pH levels are known to limit cell growth. Therefore, experiments were conducted in which 7107-18 was grown at pH 7.0, 6.0, 5.5, 5.0 and 4.7. The main objectives were to study cell growth at these lower pHs (with GlcN), and to see if the previously observed cell death caused by GlcN degradation could be reduced at lower pHs.
Cells were inoculated into M9A-glucose (40 g/L) containing 62 g/L N-acetyl glucosamine.

[8] = substrate: O=P(O)(O)OC[C@H]1OC(O)(CO)[C@@H](O)[C@@H]1O; experiment: purified protein, by the assay type

Chain of E. coli GlmS mutant GlmS*69 (P17169 whole entry, change not shown): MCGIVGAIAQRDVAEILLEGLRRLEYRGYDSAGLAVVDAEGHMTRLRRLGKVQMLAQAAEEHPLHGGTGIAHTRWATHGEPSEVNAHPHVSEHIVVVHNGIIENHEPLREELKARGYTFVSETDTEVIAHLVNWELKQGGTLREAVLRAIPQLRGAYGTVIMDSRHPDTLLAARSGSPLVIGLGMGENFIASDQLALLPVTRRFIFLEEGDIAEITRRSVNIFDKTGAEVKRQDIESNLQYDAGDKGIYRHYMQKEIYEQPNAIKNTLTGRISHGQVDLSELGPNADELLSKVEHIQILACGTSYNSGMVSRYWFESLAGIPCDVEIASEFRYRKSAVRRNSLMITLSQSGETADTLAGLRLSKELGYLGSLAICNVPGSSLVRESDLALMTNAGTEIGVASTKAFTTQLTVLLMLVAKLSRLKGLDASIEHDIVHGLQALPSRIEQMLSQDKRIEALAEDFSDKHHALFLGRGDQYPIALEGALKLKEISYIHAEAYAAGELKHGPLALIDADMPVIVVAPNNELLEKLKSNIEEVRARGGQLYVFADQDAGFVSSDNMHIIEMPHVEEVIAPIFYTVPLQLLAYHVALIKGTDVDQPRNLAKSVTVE
Chain of E. coli GlmS mutant GlmS*110 (P17169 whole entry, stated change not applied): as the sequence (P17169 whole entry, change not shown) above
Chain of E. coli glucosamine synthase GlmS*54, SEQ ID NO:6 (Ala39Thr, Arg250Cys, Gly472Ser) (P17169 whole entry A39T/R250C/G472S): as the sequence (P17169 whole entry, change not shown) above, with A39T, R250C, G472S counted along it

O=P(O)(O)OC[C@H]1OC(O)(CO)[C@@H](O)[C@@H]1O (stereo partly drawn) [fructose-6-P, fructose-6-phosphate]
Km [1]: 410 µM | Km [2]: 350 µM

N[C@H]1[C@@H](OP(=O)(O)O)O[C@H](CO)[C@@H](O)[C@@H]1O [glucosamine-1-P, glucosamine-1-phosphate]
inhibition of glucosamine synthetase (in words) [3]: inhibited the enzyme at 10 mM

N[C@H]1C(O)O[C@H](CO)[C@@H](O)[C@@H]1O (stereo partly drawn) [glucosamine]
stability of glucosamine (in words) ([4]; 0-42 g l-1 in cell-free M9A-glucose, pH 6.9, 30 C): unstable | glucosamine breakdown with versus without 40 g l-1 glucose ([4]; 30 g l-1 glucosamine in M9A medium): No significant difference | decline of pH in the medium ([4]; 42 g l-1 glucosamine, 24-hr period (6.9 to 6.2)): 0.7 units | loss of glucosamine ([4]; pH 5.5): 18% | loss of glucosamine ([4]; pH 7.0): 68% | glucosamine degradation ([4]; starting 4 g l-1, pH 6.9, 30 C, about 24 hours): about 25% | glucosamine degradation ([4]; starting 42 g l-1, pH 6.9, 30 C, less than a day): More than half | growth of freshly inoculated cultures (E. coli 7107-18; 10 and 20 g of glucosamine per liter, medium with 40 g l-1 glucose): slightly inhibited | toxicity on strain 7107-18 (E. coli 7107-18; 20 g l-1 glucosamine pre-incubated in the medium (pH 7.0) for 3.5 hrs prior to inoculation): Toxicity was observed | cell growth after inoculation into pre-incubated medium (E. coli 7107-18; 20 g l-1 glucosamine, medium incubated 10 hours before inoculation, pH 7.0 to 4.7): very poor | cell growth without glucosamine pre-incubation (E. coli 7107-18; 20 g l-1 glucosamine, pH 7.0): good growth | viable counts relative to inoculation levels (E. coli 7107-18; 35 g l-1 glucosamine): 10^5 fold less than inoculation levels | cell growth, inoculated immediately (E. coli 7107-18; 35 g l-1 glucosamine in M9A-glucose (40 g l-1)): grew reasonably well | cell survival in pre-incubated medium (E. coli 7107-18; 35 g l-1 glucosamine, medium pre-incubated as short as 3.5 hours): died rapidly | viable count after 52 hrs (E. coli 7107-18; 40 g glucosamine per liter): about one-fifth the original number | cell growth and survival (E. coli 7107-18; 40 g glucosamine per liter, killing after about 16 hours): prevented cell growth and began to kill the cells | cell survival without medium pre-incubation (E. coli 7107-18; 50 g l-1 glucosamine): Cells died | glucosamine concentration after storage ([5]; filtered culture samples, -20 C, several weeks): no decrease in glucosamine concentration | glucosamine concentration after storage ([5]; filtered samples, room temperature, overnight): did not result in any decrease in glucosamine concentration | glucosamine degradation ([6]; 20 g/l, 1 N hydrochloric acid, 35, 60 or 100 C, 24 hours): No degradation was observed | loss of glucosamine ([6]; 90 C, 12% and 16% hydrochloric acid, 90 minutes): No large loss of glucosamine was observed | glucosamine stability with heating ([6]; pH 1.0 or lower, hydrochloric acid): stable | glucosamine stability with heating ([6]; pH higher than 1.0): a significant amount of glucosamine was lost | glucosamine degradation based on ammonia formation (in words) [7]: significantly higher with higher acid concentration | viable count relative to original number (E. coli strain 7107-18; 40 g per liter, after 52 hrs): about one-fifth | concentration at which toxicity was observed (E. coli strain 7107-18; pre-incubated in medium (pH 7.0) for 3.5 hrs prior to inoculation): 20000 µg/mL

B1: Bacillus subtilis GlmS, wild type, SEQ ID NO:16 (Bacillus subtilis subsp. subtilis str. 168) (protein)
chain: CGIVGYIGQLDAKEILLKGLEKLEYRGYDSAGIAVANEQGIHVFKEKGRIADLREVVDANVEAKAGIGHTRWATHGEPSYLNAHPHQSALGRFTLVHNGVIENYVQLKQEYLQDVELKSDTDTEVVVQVIEQFVNGGLETEEAFRKTLTLLKGSYAIALFDNDNRETIFVAKNKSPLLVGLGDTFNVVASDAMAMLQVTNEYVELMDKEMVIVTDDQVVIKNLDGDVITRASYIAELDASDIEKGTYPHYMLKETDEQPVVMRKIIQTYQDENGKLSVPGDIAAAVAEADRIYIIGCGTSYHAGLVGKQYIEMWANVPVEVHVASEFSYNMPLLSKKPLFIFLSQSGETADSRAVLVQVKALGHKALTITNVPGSTLSREADYTLLLHAGPEIAVASTKAYTAQIAVLAVLASVAADKNGINIGFDLVKELGIAANAMEALCDQKDEMEMIAREYLTVSRNAFFIGRGLDYFVCVEGALKLKEISYIQAEGFAGGELKHGTIALIEQGTPVFALATQEHVNLSIRGNVKEVAARGANTCIISLKGLDDADDRFVLPEVNPALAPLVSVVPLQLIAYYAALHRGCDVDKPRNLAKSVTVE
Km [8]: 620 µM
